A value given as a limit tells only on which side of the number the result lay.

In the test the target is T1, human mGlu2 receptor (Homo sapiens, UniProt Q14416).
T1 construct: expressed in transfected cells; host or cells: HEK293
T1 sequence (Q14416 19-872): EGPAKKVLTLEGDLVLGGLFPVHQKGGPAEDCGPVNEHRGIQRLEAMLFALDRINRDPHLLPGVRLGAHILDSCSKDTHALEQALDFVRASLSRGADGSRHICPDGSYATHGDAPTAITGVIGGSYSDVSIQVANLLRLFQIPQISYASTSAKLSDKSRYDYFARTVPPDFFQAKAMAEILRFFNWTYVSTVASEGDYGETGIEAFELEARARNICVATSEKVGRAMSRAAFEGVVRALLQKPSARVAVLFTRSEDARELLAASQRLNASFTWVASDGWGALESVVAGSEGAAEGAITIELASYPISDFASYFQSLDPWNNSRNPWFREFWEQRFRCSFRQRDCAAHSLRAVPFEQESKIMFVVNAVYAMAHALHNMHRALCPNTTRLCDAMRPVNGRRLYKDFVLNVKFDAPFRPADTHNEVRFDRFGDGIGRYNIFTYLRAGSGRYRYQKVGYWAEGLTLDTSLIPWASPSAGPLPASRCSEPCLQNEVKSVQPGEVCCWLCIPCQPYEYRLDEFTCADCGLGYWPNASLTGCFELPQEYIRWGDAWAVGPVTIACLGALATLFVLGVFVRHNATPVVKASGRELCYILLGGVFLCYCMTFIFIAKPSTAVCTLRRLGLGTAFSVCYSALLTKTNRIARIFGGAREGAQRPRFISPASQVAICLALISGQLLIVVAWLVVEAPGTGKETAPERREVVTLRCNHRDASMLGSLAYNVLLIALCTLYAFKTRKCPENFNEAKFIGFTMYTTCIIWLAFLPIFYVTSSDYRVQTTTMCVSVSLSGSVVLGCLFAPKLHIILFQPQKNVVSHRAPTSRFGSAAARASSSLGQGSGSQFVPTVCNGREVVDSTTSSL
As to the kind of experiment: FLIPR intracellular Ca2+ assay, potentiation of glutamate response in HEK293 clone expressing mGlu2 receptor, rGLAST and Galpha16. It counts as cell-based. The note with it: 1 μM glutamate added ten minutes after test compound, HEK293 cells with human mGlu2, rGLAST, Galpha16, read-out: EC50 values of potentiation effect to glutamate. An excerpt: The compounds of the present invention can be tested e.g. by evaluating intracellular Ca^2+ concentrations in cells permanently expressing human mGlu receptor, the rat glutamate transporter rGLAST and the Galpha16 subunit of the G-protein complex under standard conditions in a fluorometric imaging plate reader (FLIPR, Molecular Devices, Union City, Calif. 94587, USA) by measuring the response of the cells to a test compound in the absence of presence of glutamate. The FLIPR assay is a common functional assay to monitor native or recombinant Galphaq-coupled receptors, and native or recombinant receptors normally linked to other G-protein signalling cascades, which are coupled to calcium through co-expression of an alpha subunit of a promiscuous or chimeric G-protein. In the assay the increase of intracellular calcium is measured through a calcium-dependent fluorescent dye (e.g. Fluo-4 AM) in the FLIPR instrument.
For the purpose of the present study, a cell line permanently expressing a human mGlu receptor, such as the mGlu2 receptor, the rat glutamate transporter rGLAST and the GalphaG16 may be generated by transfection as described in the examples. For selection of a suitable cell clone and also the subsequent measurements, the selected clone the cells will be plated on suitable multiwell plates in a suitable medium (e.g. DMEM Glutamax (GIBCO #21885-025)/10% dialyzed FCS). Cells may be selected by gentamycin treatment as described in the examples. Cells will then be loaded with a suitable Ca^2+ sensitive fluorescence dye, e.g. with 2 μM Fluo-4 AM (Molecular Probes, F14201). Cells will then be washed with a suitable buffer (e.g. HEPES) and the thus treated plates will be measured in a fluorometric imaging plate reader (e.g. FLIPR, Molecular Devices, Union City, Calif. 94587, USA).
The compounds of the present invention were tested in the above-described FLIPR assay using the selected cell clone. Increased intracellular calcium levels were quantified following addition of test compound (agonism), as well as following addition of a submaximal concentration of glutamate (potentiation).
For the determination of the effect of the test compound by itself (agonism) or by increasing the response to a submaximal concentration (e.g. 1 μM) of glutamate (potentiation), the resulting signal is determined by subtraction of the background fluorescence from the maximal fluorescent peak height of the respective response. In the FLIPR instrument the compound is given to the cell and its fluorescence response quantified by the FLIPR instrument (agonism). The concentration at which the compound exerts half its maximal effect is named the ‘effective concentration 50’ or ‘EC50’. The maximal effect induced by the test substance is normalized to the maximal effect exerted by 100 μM glutamate (set at 100%).
After addition of the test compound to the plate, a submaximal concentration of glutamate (e.g. 1 μM glutamate) will be added. A potentiator enhances the response of the receptor to glutamate. The response to glutamate in the presence of test compound is quantified. The concentration at which the test compound is able to exert half its maximal potentiation effect to glutamate is named the ‘EC50’. The maximal response to the submaximal concentration of glutamate (e.g. 1 micromolar glutamate) in the presence of test compound is normalized to the maximal effect exerted by 100 micromolar glutamate (set at 100%). Least squares curve fitting with a four-parameter equation is then applied to the resulting dose-response curve to determine the resulting EC5O values (Graph Pad Prism).
For the purpose of the present study, a cell line permanently expressing the human mGlu2 receptor, the rat glutamate transporter rGLAST and the alpha subunit of G16 was generated by transfection. […]
For the compound `CCCC(=O)c1ccc(NCc2cccnc2OC(C)C)cc1` [Example 310, 1-{4-[(2-Isopropoxy-pyridin-3-ylmethyl)-amino]-phenyl}-butan-1-one], the EC50 (commonly the concentration giving half of the maximal effect) was 1000 to 10000 nM.

For the compound `CCCOc1ncccc1CNc1ccc(C(=O)CCC)cc1` [Example 311, 1-{4-[(2-Propoxy-pyridin-3-ylmethyl)-amino]-phenyl}-butan-1-one], the concentration giving a half-maximal response (EC50) lay in the range of 1000 to 10000 nM.

As to `CCCC(=O)c1ccc(NCc2ccc(N3CCCCC3)nc2)cc1` [Example 312, 1-{4-[(3,4,5,6-Tetrahydro-2H-[1,2′]bipyridinyl-5′-ylmethyl)-amino]-phenyl}-butan-1-one], the EC50 fell in the range of 1000 to 10000 nM.

In the case of `CCCC(=O)c1ccc(NCc2ccc(OC3CCCC3)nc2)cc1` [Example 313, 1-{4-[(6-Cyclopentyloxy-pyridin-3-ylmethyl)-amino]-phenyl}-butan-1-one], the EC50 is 1000 to 10000 nM.

As to `CCCC(=O)c1ccc(NCc2ccc(OC)nc2OC)cc1` [Example 317, 1-{4-[(2,6-Dimethoxy-pyridin-3-ylmethyl)-amino]-phenyl}-butan-1-one], the EC50 was in the range of 1000 to 10000 nM.

Regarding `CCCC(=O)c1ccc(NCc2cccnc2-c2ccsc2)cc1` [Example 321, 1-{4-[(2-Thiophen-3-yl-pyridin-3-ylmethyl)-amino]-phenyl}-butan-1-one], the EC50 was 1000 to 10000 nM.

As for `FC(F)(F)c1ccc(-c2n[nH]cc2CNc2ccc(Cl)cn2)cc1` [Example 340, (5-Chloro-pyridin-2-yl)-[3-(4-trifluoromethyl-phenyl)-1H-pyrazol-4-ylmethyl]-amine], the EC50 lay in the range of 1000 to 10000 nM.

As for `Cc1cc(C)nc(NCc2c[nH]nc2-c2ccc(C(F)(F)F)cc2)c1` [Example 341, (4,6-Dimethyl-pyridin-2-yl)-[3-(4-trifluoromethyl-phenyl)-1H-pyrazol-4-ylmethyl]-amine], the half-maximal effective concentration (EC50) fell in the range of 1000 to 10000 nM.

Take `FC(F)(F)c1ccc(-c2n[nH]cc2CNc2cccc(Cl)n2)cc1` [Example 349, (6-Chloro-pyridin-2-yl)-[3-(4-trifluoromethyl-phenyl)-1H-pyrazol-4-ylmethyl]-amine]: the EC50 fell in the range of 1000 to 10000 nM.

For `COc1ccc(NCc2c[nH]nc2-c2ccc(C(F)(F)F)cc2)c(OC)n1` [Example 351, (2,6-Dimethoxy-pyridin-3-yl)-[3-(4-trifluoromethyl-phenyl)-1H-pyrazol-4-ylmethyl]-amine], the EC50 is 1000 to 10000 nM.

On to `CC(=O)c1sccc1NCc1c[nH]nc1-c1ccc(C(F)(F)F)cc1` [Example 355, 1-(3-{[3-(4-Trifluoromethyl-phenyl)-1H-pyrazol-4-ylmethyl]-amino}-thiophen-2-yl)-ethanone], for which the EC50 fell in the range of 1000 to 10000 nM.

For the compound `Cc1ccc(NCc2c[nH]nc2-c2ccc(C(F)(F)F)cc2)nc1C` [Example 363, (5,6-Dimethyl-pyridin-2-yl)-[3-(4-trifluoromethyl-phenyl)-1H-pyrazol-4-ylmethyl]-amine], the EC50 was 1000 to 10000 nM.

As to `CCCC(=O)c1ccc(NCc2cn(C)nc2-c2ccc(C(F)(F)F)cc2)cc1` [Example 374, 1-(4-{[1-Methyl-3-(4-trifluoromethyl-phenyl)-1H-pyrazol-4-ylmethyl]-amino}-phenyl)-butan-1-one], the EC50 was less than 1000 nM.

As to `CCCC(=O)c1ccc(NCc2cnn(C)c2-c2ccc(C(F)(F)F)cc2)cc1` [Example 375, 1-(4-{[1-Methyl-5-(4-trifluoromethyl-phenyl)-1H-pyrazol-4-ylmethyl]-amino}-phenyl)-butan-1-one], the EC50 is less than 1000 nM.

Consider `CCC(C)Oc1cccc(NCc2c[nH]nc2-c2ccc(C(F)(F)F)cc2)c1` (stereo not shown) [Example 378, (3-sec-Butoxy-phenyl)-[3-(4-trifluoromethyl-phenyl)-1H-pyrazol-4-ylmethyl]-amine], for which the EC50 is 1000 to 10000 nM.

In the case of `CCCC(C)Oc1cccc(NCc2c[nH]nc2-c2ccc(C(F)(F)F)cc2)c1` (stereo not shown) [Example 379, [3-(1-Methyl-butoxy)-phenyl]-[3-(4-trifluoromethyl-phenyl)-1H-pyrazol-4-ylmethyl]-amine], the EC50 was 1000 to 10000 nM.

In the case of `CCC(CC)Oc1cccc(NCc2c[nH]nc2-c2ccc(C(F)(F)F)cc2)c1` [Example 380, [3-(1-Ethyl-propoxy)-phenyl]-[3-(4-trifluoromethyl-phenyl)-1H-pyrazol-4-ylmethyl]-amine], the EC50 lay within 1000 to 10000 nM.

Take `CCCC(=O)c1ccc(N(Cc2cccnc2)S(=O)(=O)CC(F)(F)F)cc1` [Example 383, 2,2,2-Trifluoro-ethanesulfonic acid (4-butyryl-phenyl)-pyridin-3-ylmethyl-amide]: the EC50 lay in the range of 1000 to 10000 nM.

Regarding `CN(C)c1ccc(N(Cc2cccnc2)S(=O)(=O)CC(F)(F)F)cc1` [Example 385, 2,2,2-Trifluoro-ethanesulfonic acid (4-dimethylamino-phenyl)-pyridin-3-ylmethyl-amide], the EC50 lay within 1000 to 10000 nM.

Turning to `CCCC(=O)c1cccc(NCc2cccnc2)c1` [Example 386, 1-{3-[(Pyridin-3-ylmethyl)-amino]-phenyl}-butan-1-one], the EC50 lay in the range of 1000 to 10000 nM.

As to `CCCC(=O)c1ccc(NCc2ccc(N(C)C)nc2)cc1` [Example 387, 1-{4-[(6-Dimethylamino-pyridin-3-ylmethyl)-amino]-phenyl}-butan-1-one], the EC50 was 1000 to 10000 nM.

`CN(C)c1cccc(N(Cc2cccnc2)S(=O)(=O)CC(F)(F)F)c1` [Example 389, 2,2,2-Trifluoro-ethanesulfonic acid (3-dimethylamino-phenyl)-pyridin-3-ylmethyl-amide]: the EC50 lay within 1000 to 10000 nM.

Regarding `CCCC(=O)c1cccc(N(Cc2cccnc2)S(=O)(=O)CC(F)(F)F)c1` [Example 390, 2,2,2-Trifluoro-ethanesulfonic acid (3-butyryl-phenyl)-pyridin-3-ylmethyl-amide], the EC50 was less than 1000 nM.

As to `CCCC(=O)c1ccc(N(Cc2ccc(N(C)C)nc2)S(=O)(=O)CC(F)(F)F)cc1` [Example 391, 2,2,2-Trifluoro-ethanesulfonic acid (4-butyryl-phenyl)-(6-dimethylamino-pyridin-3-ylmethyl)-amide], the 50% effective concentration (EC50) fell in the range of 1000 to 10000 nM.

As for `CCCC(=O)c1cccc(N(C)Cc2c[nH]nc2-c2ccc(C(F)(F)F)cc2)c1` [Example 392, 1-(3-{Methyl-[3-(4-trifluoromethyl-phenyl)-1H-pyrazol-4-ylmethyl]-amino}-phenyl)-butan-1-one], the EC50 was 1000 to 10000 nM.

For the compound `CS(=O)(=O)c1ccc(NCc2c[nH]nc2-c2ccc(C(F)(F)F)cc2)cc1` [Example 399, (4-Methanesulfonyl-phenyl)-[3-(4-trifluoromethyl-phenyl)-1H-pyrazol-4-ylmethyl]-amine], the EC50 was in the range of 1000 to 10000 nM.

Turning to `Cc1cc(=O)c2ccc(NCc3c[nH]nc3-c3ccc(C(F)(F)F)cc3)cc2o1` [Example 400, 2-Methyl-7-{[3-(4-trifluoromethyl-phenyl)-1H-pyrazol-4-ylmethyl]-amino}-chromen-4-one], the EC50 fell in the range of 1000 to 10000 nM.

On to `CCCC(=O)c1ccc(NCc2c[nH]nc2-c2cccc(C(F)(F)F)c2)cc1` [Example 416, 1-(4-{[3-(3-Trifluoromethyl-phenyl)-1H-pyrazol-4-ylmethyl]-amino}-phenyl)-butan-1-one], for which the EC50 was in the range of 1000 to 10000 nM.

For `CCCC(=O)c1ccc(OCCCCOc2cccnc2)cc1` [Example 423, 1-{4-[4-(Pyridin-3-yloxy)-butoxy]-phenyl}-butan-1-one], the EC50 lay within 1000 to 10000 nM.

For the compound `CN(C)S(=O)(=O)c1cccc(NCc2c[nH]nc2-c2ccc(Cl)cc2)c1` [Example 430, 3-{[3-(4-Chloro-phenyl)-1H-pyrazol-4-ylmethyl]-amino}-N,N-dimethyl-benzenesulfonamide], the EC50 lay within 1000 to 10000 nM.

For the compound `CN(C)C(=O)c1ccc(NCc2c[nH]nc2-c2cccc(C(F)(F)F)c2)cc1` [Example 433, N,N-Dimethyl-4-{[3-(3-trifluoromethyl-phenyl)-1H-pyrazol-4-ylmethyl]-amino}-benzamide], the EC50 lay within 1000 to 10000 nM.

Source of the values: patent publication US9242933B2 (AbbVie Deutschland GmbH & Co. KG, priority 2007, dated 2016).
